Assay results published in patent US5574043A, “Certain [1,2,5-thiadiazol-4-yl]-1-azabicyclo [3.2.1]octane derivatives and their pharmaceutical uses” (Novo Nordisk A/S, priority 1995, dated 1996).
Structures can show the parent of a compound that is named as a salt.

What follows are molecules tested against muscarinic acetylcholine receptors (assay: Inhibition of specific binding of 3H-Oxotremorine-M (OXO BINDING) in vitro, rat cortex). Details: rat cortex homogenate, 3H-Oxotremorine 1.0 nM, 30 min at 25° C., pH 7.4.
Parameters: species or system male Wistar rats
From the text: The pharmacological properties of the compounds of the invention can be illustrated by determining their capability to inhibit the specific binding of ^3 H-Oxotremorine-M (^3 H-Oxo). Birdsdall N. J. M., Hulme E. C., and Burgen A. S. V. (1980). "The Character of Muscarinic Receptors in Different Regions of the Rat Brain". Proc. Roy. Soc. London (Series B) 207,1.
^3 H-Oxo labels muscarinic receptor in the CNS (with a preference for agonist domains of the receptors). Three different sites are labelled by ^3 H-Oxo. […] Using the present experimental conditions only the high and medium affinity sites are determined.
The inhibitory effects of compounds on ^3 H-Oxo binding reflects the affinity for muscarinic acetylcholine receptors.
All preparations are performed at 0°-4° C. unless otherwise indicated. Fresh cortex (0.1-1 g) from male Wistar rats (150-250 g) is homogenized for 5-10 s in 10 ml 20 mM Hepes pH: 7.4, with an Ultra-Turrax homogenizer. The homogenizer, is rinsed with 10 ml of buffer and the combined suspension centrifuged for 15 min at 40,000×g. The pellet is washed three times with buffer. In each step the pellet is homogenized as before in 2×10 ml of buffer and centrifuged for 10 min at 40,000×g.
The final pellet is homogenized in 20 mM Hepes pH: 7.4 (100 ml per g of original tissue) and used for binding assay. Aliquots of 0.5 ml is added 25 μl of test solution and 25 μl of ^3 H-Oxotremorine (1.0 nM, final concentration) mixed and incubated for 30 min at 25° C. Non-specific binding is determined in triplicate using arecoline (1 μg/ml, final concentration) as the test substance. After incubation samples are added 5 ml of ice-cold buffer and poured directly onto Whatman GF/C glass fibre filters under suction and immediately washed 2 times with 5 ml of ice-cold buffer. The amount of radioactivity on the filters are determined by conventional liquid scintillation counting. Specific binding is total binding minus non specific binding.
Test substances are dissolved in 10 ml water (if necessary heated on a steam bath for less than 5 minutes) at a concentration of 2.2 mg/ml.
The test value will be given as IC50 (the concentration (ng/ml) of the test substance which inhibits the specific binding of ^3 H-Oxo by 50%).
IC50 =(applied test substance concentration) [formula] where Co is specific binding in control assays and Cx is the specific binding in the test assay. (The calculations assume normal mass-action kinetics).

SMILES | Inhibition in vitro OXO BINDING IC50
CCCCCCOc1nsnc1C1(O)CN2CCC1CC2.O=C(O)C(=O)O (stereo not drawn) [Compound 7, 3-(3-Hexyloxy-1,2,5-thiadiazol-4-yl)-3-hydroxy-1-azabicyclo[2.2.2]octane oxalate] | 13 ng/mL
CCCCSc1nsnc1C1CN2CCC1CC2.O=C(O)C(O)C(O)C(=O)O (single isomer, unassigned) [Compound 56, (+) 3-(3-Butylthio-1,2,5-thiadiazol-4-yl)-1-azabicyclo[2.2.2]octane (-)D-tartrate] | 0.14 ng/mL
CCCCCOc1nsnc1[C@@H]1CN2CCC[C@@H]1C2 (relative stereo) [Compound 121, Exo-6-(3-pentyloxy-1,2,5-thiadiazol-4-yl)-1-azabicyclo[3.2.1]octane oxalate] | 0.32 ng/mL
c1ccc(OCCSc2nsnc2[C@H]2CN3CCC[C@H]2C3)cc1 (relative stereo) [Compound 133, Exo-6-(3-(2-phenoxyethylthio)-1,2,5-thiadiazol-4-yl)-1-azabicyclo[3.2.1]octane oxalate] | 0.45 ng/mL
CCCCCCOc1nsnc1C1CN2CCC1CC2.O=C(O)/C=C/C(=O)O (stereo not drawn) [Compound 11, 3-(3-Hexyloxy-1,2,5-thiadiazol-4-yl)-1-azabicyclo[2.2.2]octane fumarate] | 1.2 ng/mL
CCCCCSc1nsnc1[C@@H]1CN2CC[C@H]1C2 (relative stereo) [Compound 33, Endo-3-(3-pentylthio-1,2,5-thiadiazol-4-yl)-1-azabicyclo[2.2.1]heptane fumarate] | 6.4 ng/mL
c1ccc2sc(SCCCCSc3nsnc3C3CN4CCC3CC4)nc2c1 (stereo not drawn) [Compound 108, 3-(3-(4-(2-Benzothiazolyl)thio)butylthio-1,2,5-thiadiazol-4-yl)-1-azabicyclo[2.2.2]octane oxalate] | 16 ng/mL
c1csc(CCCSc2nsnc2C2CN3CCC2CC3)c1 (stereo not drawn) [Compound 104, 3-(3-(3-(2-Thienyl)propylthio)-1,2,5-thiadiazol-4-yl)-1-azabicyclo[2.2.2]fumarate] | 0.85 ng/mL
CCCSc1nsnc1[C@@H]1CN2CC[C@H]1C2 (relative stereo) [Compound 37, Endo:3-(3-propylthio-1,2,5-thiadiazol-4-yl)-1-azabicyclo[2.2.1]heptane oxalate] | 2.0 ng/mL
COc1nsnc1C1(OC)CN2CCC1CC2.O=C(O)C(=O)O (stereo not drawn) [Compound 3, 3-Methoxy-3-(3-methoxy-1,2,5-thiadiazol-4-yl)-1-azabicyclo[2.2.2]octane oxalate] | 208 ng/mL
FC(F)(F)CCCSc1nsnc1[C@@H]1CN2CCC[C@@H]1C2 (single isomer, unassigned) [Compound 130, (+)-Exo-6-(3-(4,4,4-trifluoro-1-butylthio)-1,2,5-thiadiazol-4-yl)-1-azabicyclo[3.2.1]octane oxalate] | 0.60 ng/mL
CCOc1nsnc1C1CN2CCC1CC2.O=C(O)/C=C/C(=O)O (stereo not drawn) [Compound 9, 3-(3-Ethoxy-1,2,5-thiadiazol-4-yl)-1-azabicyclo[2.2.2]octane fumarate] | 0.69 ng/mL
CCC=CCCOc1nsnc1C1CN2CCC1CC2.O=C(O)/C=C/C(=O)O (stereo not drawn) [Compound 49, 3-(3-(3-Hexenyloxy)-1,2,5-thiadiazol-4-yl)-1-azabicyclo[2.2.2]octane fumarate] | 0.33 ng/mL
CCCCOc1nsnc1[C@@H]1CN2CCC[C@@H]1C2 (relative stereo) [Compound 120, Exo-6-(3-butoxy-1,2,5-thiadiazol-4-yl)-1-azabicyclo[3.2.1]octane oxalate] | 0.28 ng/mL
CC(C)CCSc1nsnc1[C@H]1CN2CCC[C@H]1C2 (relative stereo) [Compound 77, Exo-6-(3-isopentylthio-1,2,5-thiadiazol-4-yl)-1-azabicyclo[3.2.1]octane] | 0.89 ng/mL
ClC1=C(c2cnsn2)CN2CCCC1C2.O=C(O)C(=O)O (stereo not drawn) [Compound 65, 4-Chloro-3-(1,2,5-thiadiazol-4-yl)-1-azabicyclo[3.3.1]non-3-ene oxalate] | 9.6 ng/mL

SMILES | Inhibition in vitro OXO BINDING IC50
CCCCCCOc1nsnc1C1=CC2CCCN(C1)C2.O=C(O)C(=O)O (stereo not drawn) [Compound 98, 3-(3-Hexyloxy-1,2,5-thiadiazol-4-yl)-1-azabicyclo[3.3.1]non-3-ene oxalate] | 1.0 ng/mL
Clc1nsnc1[C@@H]1CN2CC[C@@H]1C2 (relative stereo) [Compound 21, Exo-3-(3-chloro-1,2,5-thiadiazol-4-yl)-1-azabicyclo[2.2.1]heptane oxalate] | 0.96 ng/mL
CSc1nsnc1C1CN2CCC1CC2.O=C(O)C(=O)O (stereo not drawn) [Compound 131, 3-(3-Methylthio-1,2,5-thiadiazol-4-yl)-1-azabicyclo[2.2.2]octane oxalate] | 0.96 ng/mL
N#CCCCSc1nsnc1[C@H]1CN2CCC[C@@H]1C2 (relative stereo) [Compound 91, Endo-6-(3-(3-cyanopropylthio)-1,2,5-thiadiazol-4-yl)-1-azabicyclo[3.2.1]octane oxalate] | 5.2 ng/mL
O=C(O)/C=C/C(=O)O.c1ccc(CCCSc2nsnc2C2CN3CCC2CC3)cc1 (stereo not drawn) [Compound 44, 3-(3-(3-Phenylpropylthio)-1,2,5-thiadiazol-4-yl)-1-azabicyclo[2.2.2]octane fumarate] | 4.7 ng/mL
COc1nsnc1C1=CN2CCC1CC2.O=C(O)C(=O)O [Compound 4, 3-(3-Methoxy-1,2,5-thiadiazol-4-yl)-1-azabicyclo[2.2.2]oct-2-ene oxalate] | 21 ng/mL
CCCCSc1nsnc1[C@@H]1CN2CC[C@H]1C2 (relative stereo) [Compound 36, Endo-3-(3-butylthio-1,2,5-thiadiazol-4-yl)-1-azabicyclo[2.2.1]heptane fumarate] | 0.82 ng/mL
CCCSc1nsnc1[C@H]1CN2CC[C@H]1C2 (relative stereo) [Compound 40, Exo-3-(3-propylthio-1,2,5-thiadiazol-4-yl)-1-azabicyclo[2.2.1]heptane oxalate] | 0.19 ng/mL
Clc1nsnc1[C@H]1CN2CC[C@@H]1C2 (relative stereo) [Compound 22, Endo-3-(3-chloro-1,2,5-thiadiazol-4-yl)-1-azabicyclo[2.2.1]heptane oxalate] | 3.4 ng/mL
CCCCSc1nsnc1[C@H]1CN2CCC[C@H]1C2 (relative stereo) [Compound 30, Exo-6-(3-butylthio-1,2,5-thiadiazol-4-yl)-1-azabicyclo[3.2.1]octane oxalate] | 0.13 ng/mL
CCCCSc1nsnc1[C@@H]1CN2CCC[C@@H]1C2 (single isomer, unassigned) [Compound 112, (-)-Exo-6-(3-butylthio-1,2,5-thiadiazol-4-yl)-1-azabicyclo[3.2.1]octane (-) D-tartrate] | 0.19 ng/mL
Cn1nnnc1SCCCCSc1nsnc1C1CN2CCC1CC2 (stereo not drawn) [Compound 106, oxalate] | 0.9 ng/mL
CCCCCSc1nsnc1[C@H]1CN2CCC[C@@H]1C2 (relative stereo) [Compound 26, Endo-6-(3-pentylthio-1,2,5-thiadiazol-4-yl)-1-azabicyclo[3.2.1]octane oxalate] | 1.4 ng/mL
CCc1ccc(COc2nsnc2C2CN3CCC2CC3)cc1.O=C(O)C(=O)O (stereo not drawn) [Compound 109, 3-(3-(4-Ethylbenzyloxy)-1,2,5-thiadiazol-4-yl)-1-azabicyclo[2.2.2]octane oxalate] | 4.0 ng/mL
CSc1nsnc1[C@@H]1CN2CCC[C@H]1C2 (relative stereo) [Compound 85, Endo-6-(3-methylthio-1,2,5-thiadiazol-4-yl)-1-azabicyclo[3.2.1]octane oxalate] | 7.2 ng/mL
CCCCCCOc1nsnc1C1(OCCCCCC)CN2CCC1CC2.O=C(O)C(=O)O (stereo not drawn) [Compound 6, 3-Hexyloxy-3-(3-hexyloxy-1,2,5-thiadiazol-4-yl)-1-azabicyclo[2.2.2]octane oxalate] | > 300 ng/mL

Same assay, conditions: rat cortex homogenate, 3H-Oxotremorine 1.0 nM, 30 min at 25° C., pH 7.4; L-tartrate

SMILES | Inhibition in vitro OXO BINDING IC50
CCCCSc1nsnc1C1CN2CCC1CC2.O=C(O)C(O)C(O)C(=O)O (single isomer, unassigned) [Compound 55, (-) 3-(3-Butylthio-1,2,5-thiadiazol-4-yl)-1-azabicyclo[2.2.2]octane (+) L-tartrate] | 0.43 ng/mL
